Experimental data reported in patent US8686178B2, “Derivative of 18β-glycyrrhetinic acid apt to suppress cancer cells” (Kaohsiung Medical University, priority 2011, dated 2014).

Assays:
[1] = test system: human prostate cancer cell line PC3; test: Trial (B): MTT cytotoxicity assay, 72 hours; type: cell-based; conditions: 0-50 μM
Text: (§1) For the sake of proving therapeutic effects of the derivatives of 18β-glycyrrhetinic acid of the present invention, including 10, 11, 13-17 and 21-25, in treating of cancer, human bladder cancer cell line NTUB1, human prostate cancer cell line PC3 cataloged as CRL-1435 (reference to J. Formosan Med. Assoc. 1992; 91:608-13), and immortalized normal human urothelial cells SV-HUC1 cataloged as CRL-9520 are purchased from American Type Culture Collection (ATCC; Rockville, USA) and maintained in a culturing medium respectively till at a preferable density to carry out a serial of trials (comprising trial A to G) for evaluating cytotoxicities of the derivatives of 18β-glycyrrhetinic acid against cancer cells, and mechanisms thereof. […]
(§2) In trial (B), the cell lines of NTUB1, PC3, and SV-HUC1 are prepared in 96-well plates and co-incubated with the compounds 21, 23 or 25 in various concentrations of 0, 0.3, 1, 3, 5, 10, 30 and 50 μM, to analyze cytotoxic effects against either cancer cell or normal cells via a modified 3-[4,5-dimethylthiazol-2-yl]-2,5-diphenyltetrazolium bromide (MTT, Sigma Chemical Co.) assay. […] At co-incubation, 50 μL of MTT (2 mg/mL in PB) is added to each well to react for 3 hours, followed by centrifugating the 96-well plates at 1000 g for 10 min to remove supernatant, adding 150 μL DMSO in each well of the 96-well plates, and determining viability rates of the NTUB1, PC3, and SV-HUC1 cells separately by an absorbance spectrometry at 540 nm with a MRX (DYNEXCO) microplate reader.

[2] = test system: immortalized normal human urothelial cells SV-HUC1; test: Trial (B): MTT assay on normal cells, 72 hours; type: cell-based; conditions: 0-50 μM
Text: as §1, §2

NTUB1 cells [3] = test: Trial (D): production of reactive oxygen species by flow cytometry (DCF); type: cell-based, human; conditions: 24 hours
Protocol: In trial (D), production of reactive oxygen species (ROS) is analyzed by flow cytometry, since the levels of ROS play an important role in apoptosis.
Referring to TABLE 4, the NTUB1 cells at a density of 8×10^5 cells/ml are prepared and assigned into 5 groups, including D1 to D5, to incubate in various medium for 24 hours. Next, 10 μM of 2,7-dichlorodihydrofluorescein diacetate (H2DCFHDA; Molecular Probes, Eugene, Oreg.) is added to the NTUB1 cells of each group 30 minutes prior than harvest, followed by collecting the NTUB1 cells of each group respectively and washing with PBS buffer. With such arrangement, the 2,7-dichlorodihydrofluorescein diacetate will penetrate into cells, interact with esterase, and degrade to 2,7-dichlorofluorescein (DCF) having green fluorescein, which can be determined by flow cytometer. In trial (D), green fluorescence of intracellular DCF in each group are analyzed immediately by FACScan flow cytometer (Becton Dickinson) at a wavelength of 525 nm.

NTUB1 cells [4] = test: Trial (E): cell cycle progression by flow cytometry (propidium iodide); type: cell-based, human; set-up: Sub-G1 / G1: unit not given here; conditions: for G1 / G2/M / S / Sub-G1: 24 hours
Protocol: In order to determine a relationship between the derivatives of 18β-glycyrrhetinic acid of the present invention and cell cycle arrest, trial (E) is carried out by analyzing cell cycle progression by flow cytometry. […] After that, cell cycle progression of each group is determined respectively by incubating with 50 μg/mL propidium iodide (Sigma, Co) and 50 μg/mL RNase A (Sigma, Co) in PBS at room temperature for 30 min, and analyzing by FACScan flow cytometer and Cell Quest sofeware.

NTUB1 cells [5] = test: Trial (F): mitochondrial membrane potential (JC-1) by flow cytometry; type: cell-based, human; conditions: for R1 (%): 30 minutes, JC-1, NTUB1
Protocol: In trial (F), mitochondrial membrane potential (MMP) in NTUB1 cells is measured according to a journal article published by Martin et al., at 2009 in PloS one, in which a dysfunction of the mitochondria caused by ROS induced MPP decrease is supposed.
Referring to TABLE 6, the NTUB1 cells at a density of 3×10^5 cells/ml are prepared and assigned into 5 groups, including F1 to F5, to incubate in 10 μM carbonyl cyanide 3-chlorophenylhydrazone (CCCP), and 10, 25 and 50 μM of 25 respectively, for 30 minutes, followed by adding 1 μM of 5,5′,6,6′-tetrachloro-1,1′,3,3′-tetraethylbenzimidaolylcarbocyanine iodide (JC-1) (Molecular Probes, Eugene, Oreg., USA) in each group. Then, the NTUB1 cells in each group are washed with PBS buffer for 3 times, collected in PBS/2% BSA, washed twice by centrifugating at 800 g, 5 minutes and resuspending in 0.3 mL PBS/2% BSA, and finally analyzed by a FACSCalibur flow cytometer (Becton Dickinson), with the FACSCalibur flow cytometer determining and calculating a ratio of JC-1 aggregates (red fluorescence) to JC-1 monomers (green fluorescence) based on levels of MMP in each group.

What does the source list for `C=C(C)[C@@H]1CC[C@]2(C)[C@H](C(=O)C=C3[C@@H]4C[C@@](C)(C(=O)NC(C)C)CC[C@]4(C)CC[C@]32C)[C@@]1(C)CCC(=O)NC(C)C` [Compound 25, 3,4-seco-11-oxo-18β-olean-4(23),12-dien-3,30-diisopropyl carbamate]?
cytotoxic effect (survival ratio, FIGS. 4-6) [1]: cytotoxic effects against to the cancer cells in a dose-dependent manner; effect on growth of normal cells (survival ratio, FIGS. 4-6) [2]: enhance the growth of SV-HUC1 cells; ROS (%) (NTUB1 cells [3]; 10 μM): 66.1%; ROS (%) (NTUB1 cells [3]; 25 μM): 85.6%; G1 (NTUB1 cells [4]; 25 μM, NTUB1): 49.51; G2/M (NTUB1 cells [4]; 25 μM, NTUB1): 12.68; S (NTUB1 cells [4]; 25 μM, NTUB1): 12.69; Sub-G1 (NTUB1 cells [4]; 25 μM, NTUB1): 20.39; G1 (NTUB1 cells [4]; 50 μM, NTUB1): 35.72; G2/M (NTUB1 cells [4]; 50 μM, NTUB1): 5.22; S (NTUB1 cells [4]; 50 μM, NTUB1): 3.15; Sub-G1 (NTUB1 cells [4]; 50 μM, NTUB1): 55.71; G1 (NTUB1 cells [4]; 75 μM, NTUB1): 14.69; G2/M (NTUB1 cells [4]; 75 μM, NTUB1): 4.00; S (NTUB1 cells [4]; 75 μM, NTUB1): 2.79; Sub-G1 (NTUB1 cells [4]; 75 μM, NTUB1): 78.39; cell cycle arrest (NTUB1 cells [4]; 25, 50 and 75 μM, NTUB1): does not induce cell cycle arrest; population of sub-G1 phase (NTUB1 cells [4]; 25, 50 and 75 μM, NTUB1): induce the population of sub-G1 phase to cancer cells in dose-dependent manner; S phase cells (NTUB1 cells [4]; NTUB1 exposed to compound): a decrease of S phase cells; R1 (%) (NTUB1 cells [5]; 10 μM): 94.14%; R1 (%) (NTUB1 cells [5]; 25 μM): 87.17%; R1 (%) (NTUB1 cells [5]; 50 μM): 55.65%; mitochondrial membrane potential (NTUB1 cells [5]; NTUB1, TABLE 6): decrease MPP in cancer cells in a dose-dependent manner
